Test system: Endogenous Huntingtin Protein
Assay: Endogenous Huntingtin Protein Assay (Meso Scale Discovery ELISA-based electrochemiluminescence)
Assay type: cell-based
Details: MSD electrochemiluminescence, Table 1
Method in brief: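 MSD electrochemiluminescence sandwich ELISA: MW1 (expanded polyQ) or MAB2166 capture antibody at 1 μg/mL, samples incubated overnight at 4° C. Detection with rabbit monoclonal #5656S then SULFO-TAG anti-rabbit antibody, each 0.25 μg/mL for 1 h at room temperature.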

Row | IC50 | Compound
1 | 500 to 1000 nM | Cn1cc2c(F)c(-c3cc(F)c4cc(C5CCNCC5)nnc4c3)ccc2n1 [Compound 109, 5-fluoro-7-(4-fluoro-2-methyl-2H-indazol-5-yl)-3-(piperidin-4-yl)cinnoline]
2 | 500 to 1000 nM | Cc1cc(-c2cc3c(F)cc([C@@]4(O)CCNC[C@@H]4O)cc3nn2)cc2cn(C)nc12 [Compound 203, (3S,4S)-4-[3-(2,7-dimethyl-2H-indazol-5-yl)-5-fluorocinnolin-7-yl]piperidine-3,4-diol]
3 | 100 to 500 nM | Cc1cc2cc(-c3cc(F)c4nc(C5CCNCC5)nnc4c3)cc(C)n2n1 [Compound 65, 7-(2,7-dimethylpyrazolo[1,5-a]pyridin-5-yl)-5-fluoro-3-(piperidin-4-yl)-1,2,4-benzotriazine]
4 | ≤ 100 nM | Cc1cn2nc(-c3cc(F)c4cc(C5CCNCC5)nnc4c3)ccc2n1 [Compound 99, 5-fluoro-7-(2-methylimidazo[1,2-b]pyridazin-6-yl)-3-(piperidin-4-yl)cinnoline]
5 | ≤ 100 nM | Cc1cn2nc(-c3cc(F)c4cc(C5CCN(C)CC5)nnc4c3)cc(CO)c2n1 [Compound 180, {6-[5-fluoro-3-(1-methylpiperidin-4-yl)cinnolin-7-yl]-2-methylimidazo[1,2-b]pyridazin-8-yl}methanol]
6 | ≤ 100 nM | Cc1cn2nc(-c3cc(F)c4cc(C5C[C@@H](C)N[C@@H](C)C5)nnc4c3)cc(C)c2n1 (stereo partly drawn) [Compound 90, 7-(2,8-dimethylimidazo[1,2-b]pyridazin-6-yl)-3-[(2R,4r,6S)-2,6-dimethylpiperidin-4-yl]-5-fluorocinnoline]
7 | ≤ 100 nM | CCN1CCC(c2cc3c(F)cc(-c4cc(C)c5nc(C)oc5n4)cc3nn2)CC1 [Compound 152, 7-(2,7-dimethyl[1,3]oxazolo[5,4-b]pyridin-5-yl)-3-(1-ethylpiperidin-4-yl)-5-fluorocinnoline]
8 | 100 to 500 nM | Cc1cc(-c2ccc3nc(C4CCNCC4)nnc3c2)cc2cn(C)nc12 [Compound 16, 7-(2,7-dimethyl-2H-indazol-5-yl)-3-(piperidin-4-yl)-1,2,4-benzotriazine]
9 | ≤ 100 nM | CCN1CCC(c2cc3c(F)cc(-c4ccc5nc(C)cn5n4)cc3nn2)CC1 [Compound 100, 3-(1-ethylpiperidin-4-yl)-5-fluoro-7-(2-methylimidazo[1,2-b]pyridazin-6-yl)cinnoline]
10 | ≤ 100 nM | CCN1CCC(c2cc3c(F)cc(-c4cc(F)c5nc(C)cn5c4)cc3nn2)CC1 [Compound 102, 3-(1-ethylpiperidin-4-yl)-5-fluoro-7-(8-fluoro-2-methylimidazo[1,2-a]pyridin-6-yl)cinnoline]
11 | ≤ 100 nM | COc1cc(-c2cc(F)c3cc(C4CCNCC4)nnc3c2)nn2cc(C)nc12 [Compound 106, 5-fluoro-7-(8-methoxy-2-methylimidazo[1,2-b]pyridazin-6-yl)-3-(piperidin-4-yl)cinnoline]
12 | ≤ 100 nM | CCN1CCC(c2cc(F)c3cc(-c4cc(F)c5nc(C)cn5c4)nnc3c2)CC1 [Compound 144, 7-(1-ethylpiperidin-4-yl)-5-fluoro-3-(8-fluoro-2-methylimidazo[1,2-a]pyridin-6-yl)cinnoline]
13 | 100 to 500 nM | Cc1cc2oc(-c3cc(F)c4cc(C5C[C@@H](C)N(C)[C@@H](C)C5)nnc4c3)nc2c(C)n1 (stereo partly drawn) [Compound 228, 7-(4,6-dimethyloxazolo[4,5-c]pyridin-2-yl)-5-fluoro-3-((2S,4R,6R)-1,2,6-trimethylpiperidin-4-yl)cinnoline]
14 | ≤ 100 nM | Cc1cn2nc(-c3cc(F)c4cc(C5CCNCC5)nnc4c3)cc(C#N)c2n1 [Compound 108, 6-[5-fluoro-3-(piperidin-4-yl)cinnolin-7-yl]-2-methylimidazo[1,2-b]pyridazine-8-carbonitrile]
15 | ≤ 100 nM | CCN1CCC(c2cc(F)c3nc(-c4cc(F)c5nn(C)cc5c4)ncc3c2)CC1 [Compound 202, 6-(1-ethylpiperidin-4-yl)-8-fluoro-2-(7-fluoro-2-methyl-2H-indazol-5-yl)quinazoline]
16 | ≤ 100 nM | Cc1cc2cc(-c3cc(F)c4cc(C5CCNCC5)nnc4c3)oc2c(C)n1 [Compound 146, 7-(5,7-dimethylfuro[2,3-c]pyridin-2-yl)-5-fluoro-3-(piperidin-4-yl)cinnoline]
17 | ≤ 100 nM | Cc1cn2nc(-c3nnc4cc(C5CCNCC5)cc(F)c4n3)cc(C)c2n1 [Compound 57, 3-(2,8-dimethylimidazo[1,2-b]pyridazin-6-yl)-5-fluoro-7-(piperidin-4-yl)-1,2,4-benzotriazine]
18 | ≤ 100 nM | Cc1cn2nc(-c3cc(F)c4cc(C5CCN(CCF)CC5)nnc4c3)cc(CO)c2n1 [Compound 182, (6-{5-fluoro-3-[1-(2-fluoroethyl)piperidin-4-yl]cinnolin-7-yl}-2-methylimidazo[1,2-b]pyridazin-8-yl)methanol]
19 | ≤ 100 nM | CCN1CCC(c2cc(F)c3nc(-c4cc(F)c5nn(C)cc5c4)ccc3c2)CC1 [Compound 193, 6-(1-ethylpiperidin-4-yl)-8-fluoro-2-(7-fluoro-2-methyl-2H-indazol-5-yl)quinoline]
20 | ≤ 100 nM | Cc1cn2cc(-c3cc(F)c4cc(C5CCNCC5)nnc4c3)cc2c(C)n1 [Compound 101, 7-(1,3-dimethylpyrrolo[1,2-a]pyrazin-7-yl)-5-fluoro-3-(piperidin-4-yl)cinnoline]
21 | ≤ 100 nM | Cn1cc2cc(-c3cc(F)c4cc(C5CCNCC5)nnc4c3)ccc2n1 [Compound 95, 5-fluoro-7-(2-methyl-2H-indazol-5-yl)-3-(piperidin-4-yl)cinnoline]
22 | 100 to 500 nM | Cc1cn2nc(-c3cc(F)c4cc(C5CCNCC5)nnc4c3)cc(OCCN(C)C)c2n1 [Compound 138, 2-({6-[5-fluoro-3-(piperidin-4-yl)cinnolin-7-yl]-2-methylimidazo[1,2-b]pyridazin-8-yl}oxy)-N,N-dimethylethan-1-amine]
23 | 100 to 500 nM | Cc1nc2c(C)cc(-c3cc(F)c4cc(C5CCNCC5)nnc4c3)cc2s1 [Compound 118, 7-(2,4-dimethyl-1,3-benzothiazol-6-yl)-5-fluoro-3-(piperidin-4-yl)cinnoline]
24 | 500 to 1000 nM | CCN1CCC(c2cc3c(F)cc(-c4cn5cc(C)nc(C)c5n4)cc3nn2)CC1 [Compound 119, 7-(6,8-dimethylimidazo[1,2-a]pyrazin-2-yl)-3-(1-ethylpiperidin-4-yl)-5-fluorocinnoline]
25 | ≤ 100 nM | Cc1nc2c(C)cc(-c3cc(F)c4cc(C5CCNCC5)nnc4c3)nc2s1 [Compound 133, 7-(2,7-dimethyl[1,3]thiazolo[5,4-b]pyridin-5-yl)-5-fluoro-3-(piperidin-4-yl)cinnoline]
26 | ≤ 100 nM | CCCc1cc(-c2cc(F)c3cc(C4CCNCC4)nnc3c2)nn2cc(C)nc12 [Compound 204, 5-fluoro-7-(2-methyl-8-propylimidazo[1,2-b]pyridazin-6-yl)-3-(piperidin-4-yl)cinnoline]

Row | Compound | IC50
27 | Cn1cc2cc(-c3cc4c(F)cc(C5=CCNCC5)cc4nn3)cc(C#N)c2n1 [Compound 175, 5-[5-fluoro-7-(1,2,3,6-tetrahydropyridin-4-yl)cinnolin-3-yl]-2-methyl-2H-indazole-7-carbonitrile] | ≤ 100 nM
28 | Cc1cn2cc(-c3cc4c(F)cc(C5=CCNCC5)cc4nn3)cc(F)c2n1 [Compound 117, 5-fluoro-3-(8-fluoro-2-methylimidazo[1,2-a]pyridin-6-yl)-7-(1,2,3,6-tetrahydropyridin-4-yl)cinnoline] | ≤ 100 nM

— patent US12384789B2, “Compounds for treating Huntington's disease” (PTC Therapeutics, Inc., priority 2017, dated 2025)
